Assay results taken from patent US7271195B2, “Carbonyl compounds as inhibitors of histone deacetylase for the treatment of disease” (Kalypsys, Inc., priority 2003, dated 2007).
Where two headings read alike, the source gives them in different places.

How the values were obtained:
[1] = system: HDAC in cells (cellular histone acetylation levels); assay: Cellular histone hyperacetylation assay (cytoblot), cellular HDAC inhibition; assay type: cell-based; details: for Cellular IC50 / IC50: "active" = inhibitory activity but cellular IC50 could not be determined; for Emax / % Max. Inhibition (cellular): maximum inhibition; for Emax: read-out: % Max. Inhibition (cellular)
Method: Cellular Histone Hyperacetylation Assays:
These two secondary assays evaluates a compound's ability to inhibit HDAC in cells by measuring cellular histone acetylation levels. The cytoblot facilitates quantitative EC50 information for cellular HDAC inhibition. Transformed cell lines (e.g. HeLa, A549, MCF-7) are cultured under standard media and culture conditions prior to plating.
Cells (approx. 2,500/well) are allowed to adhere 10-24 hours to wells of a 384-well Greiner PS assay plate in media containing 1-5% serum. Cells are treated with appropriate compound and specific concentrations for 0 to 24 hours. Cells are washed once with PBS (60 ul) and then fixed (95% ethanol, 5% acetic acid or 2% PFA) for 1 minute at RT (30 ul). Cells are blocked with 1% BSA for 1 hour and washed and stained with antibody (e.g. anti-Acetylated Histone H3, Upstate Biotechnology), followed by washing and incubation with an appropriate secondary antibody conjugated to HRP or fluorophore. For luminescence assays, signal is generated using Luminol substrate (Santa Cruz Biotechnology) and detected using an Aquest plate reader (Molecular Devices).

[2] = system: T1, HDAC; assay: In vitro HDAC-inhibition assay (Fluor de Lys fluorescent substrate); assay type: biochemical; details: for IC50: in vitro HDAC enzyme source; for % Max Inhibition (in vitro): maximum inhibition
T1 construct: in vitro IC50; other: in vitro HDAC enzyme source
Method: In vitro HDAC-inhibition Assay:
This assay measures a compound's ability to inhibit acetyl-lysine deacetylation in vitro and was used as both a primary screening method as well as for IC50 determinations of confirmed inhibitors. The assay is performed in vitro using an HDAC enzyme source (e.g. partially purified nuclear extract or immunopurified HDAC complexes) and a proprietary fluorescent substrate/developer system (HDAC Quantizyme Fluor de Lys Fluorescent Activity Assay, BIOMOL). The assay is run in 1,536-well Greiner white-bottom plates using the following volumes and order of addition:
Step 1: Enzyme (2.5 ul) source added to plate (from refrigerated container) • Step 2: Compounds (50 nl) added with pin transfer device • Step 3: Fluor de Lys (2.5 ul) substrate added, incubate at RT, 30 minutes • Step 4: Developer (5 ul) solution is added (containing TSA), to stop reaction • Step 5: Plate Reader—data collection
The deacetylated fluorophore is excited with 360 nm light and the emitted light (460 nm) is detected on an automated fluorometric plate reader (Aquest, Molecular Devices).

[3] = system: HDAC; details: published value for positive control; read-out: published in vitro IC50; cited from earlier work

| Structure (SMILES) | Cellular IC50 [1] | IC50 [2] | IC50 [1] | % Max Inhibition (in vitro) [2] | Emax [1] | % Max. Inhibition (cellular) [1] | IC50 [3] |
| --- | --- | --- | --- | --- | --- | --- | --- |
| O=C(CSC1=NCCS1)c1ccc(Cl)cc1 [Compound 17] | active | > 10000 nM |  | >75% |  |  |  |
| N#CSCC(=O)c1ccc2c(c1)OCCO2 [Compound 5] | active | < 1000 nM |  | >75% |  |  |  |
| C[C@@H]1NC(=O)[C@H]2CCCN2C(=O)[C@H](CCCCCC(=O)[C@@H]2CO2)NC(=O)[C@@H](C)NC1=O [HC-toxin, reference compound] |  | < 1000 nM |  | >75% |  |  |  |
| O=C(CSC1=NCCS1)c1ccccc1 [Compound 14, 2-(4,5-Dihydro-thiazol-2-ylsulfanyl)-1-phenyl-ethanone] |  | > 10000 nM | > 10000 nM | >75% | < 50% |  |  |
| Cc1cc(C(=O)CSC#N)ccc1Cl [Compound 4] |  | < 1000 nM | 1000 to 10000 nM | >75% | > 75% |  |  |
| CCN(CC)c1ccc(C(=O)CSC#N)cc1 [Compound 13] | active | 1000 to 10000 nM |  | >75% |  |  |  |
| N#CSCC(=O)c1ccc(F)c(F)c1 [Compound 2] | active | < 1000 nM |  | >75% |  |  |  |
| N#CSCC(=O)c1ccc(Cl)cc1 [Compound 6] |  | < 1000 nM | 1000 to 10000 nM | >75% | > 75% |  |  |
| O=C1CSC(SCC(=O)c2ccc(Br)cc2)=N1 [Compound 33] |  | < 1000 nM | > 10000 nM | >75% | > 75% |  |  |
| COc1ccc(S(=O)(=O)Nc2ccc(C(=O)CSC3=NCCS3)cc2)cc1OC [Compound 26, N-{4-[2-(4,5-Dihydro-thiazol-2-ylsulfanyl)-acetyl]-phenyl}-3,4-dimethoxy-benzenesulfonamide] |  | 1000 to 10000 nM | < 1000 nM | >75% | > 75% |  |  |
| COc1cccc(C(=O)CSC2=NCCS2)c1 [Compound 20] | active | > 10000 nM |  | >75% |  |  |  |
| O=C(CSC1=NCCS1)c1ccc(Br)cc1 [Compound 18] | active | > 10000 nM |  | >75% |  |  |  |
| O=C(CS)c1ccc(Br)cc1 [Compound 41, 1-(4-Bromo-phenyl)-2-mercapto-ethanone] | active | < 1000 nM |  | >75% | > 75% |  |  |
| O=C(CSC1=NCCS1)c1ccc(NS(=O)(=O)c2ccc(OC(F)(F)F)cc2)cc1 [Compound 27, N-{4-[2-(4,5-Dihydro-thiazol-2-ylsulfanyl)-acetyl]-phenyl}-4-trifluoromethoxy-benzenesulfonamide] |  | 1000 to 10000 nM | 1000 to 10000 nM | >75% | > 75% |  |  |
| O=C(CSC1=NCCS1)c1ccc(N2CCCC2)cc1 [Compound 24] | active | > 10000 nM |  | >50% |  |  |  |
| N#CSCC(=O)c1ccc(N2CCCC2)cc1 [Compound 11] | active | 1000 to 10000 nM |  | >50% |  |  |  |
| COc1ccc(C(=O)CSC#N)cc1OC [Compound 12] |  | 1000 to 10000 nM |  | >75% |  |  |  |
| N#CSCC(=O)c1cccc(Br)c1 [Compound 8] | active | < 1000 nM |  | >75% |  |  |  |
| CCN(CC)c1ccc(C(=O)CSC2=NCCS2)cc1 [Compound 22] |  | > 10000 nM | 1000 to 10000 nM | <50% | < 50% |  |  |

More lines, main results first:

| Cellular IC50 [1] | IC50 [2] | IC50 [1] | Structure (SMILES) | % Max Inhibition (in vitro) [2] | Emax [1] | % Max. Inhibition (cellular) [1] | IC50 [3] |
| --- | --- | --- | --- | --- | --- | --- | --- |
|  | < 1000 nM | < 1000 nM | O=C(CSSCC(=O)c1ccc(NS(=O)(=O)c2ccc(OC(F)(F)F)cc2)cc1)c1ccc(NS(=O)(=O)c2ccc(OC(F)(F)F)cc2)cc1 [Compound 47, Thioacetic acid S-{2-oxo-2-[4-(4-trifluoromethoxy-benzenesulfonylamino)-phenyl]-ethyl}disulfide] | >75% | > 75% |  |  |
|  | 1000 to 10000 nM | > 10000 nM | COc1cccc(C(=O)CS)c1 [Compound 42] | >75% | > 75% |  |  |
|  | < 1000 nM | > 10000 nM | O=C1CSC(SCC(=O)c2ccccc2)=N1 [Compound 32] | >75% | > 50% |  |  |
| active | > 10000 nM |  | COc1ccc(C(=O)CSC2=NCCS2)cc1OC [Compound 25] | <50% |  |  |  |
|  | < 1000 nM | 1000 to 10000 nM | CC(=O)Nc1ccc(C(=O)CSC#N)cc1 [Compound 7] | >75% | > 75% |  |  |
|  | < 1000 nM | < 1000 nM | CC(=O)SCC(=O)c1ccc(NS(=O)(=O)c2ccc(OC(F)(F)F)cc2)cc1 [Compound 48, Thioacetic acid S-{2-oxo-2-[4-(4-trifluoromethoxy-benzenesulfonylamino)-phenyl]-ethyl}ester] | >75% | > 75% |  |  |
|  | 1000 to 10000 nM | 1000 to 10000 nM | O=C(CSC1=NCCS1)c1ccc(Cl)c(Cl)c1 [Compound 15] | >75% | > 75% |  |  |
| active | 1000 to 10000 nM |  | O=C(CSC1=NCCS1)c1cccc(Br)c1 [Compound 16] | >75% |  |  |  |
|  | < 1000 nM | 1000 to 10000 nM | O=C1CSC(SCC(=O)c2ccc3c(c2)OCCO3)=N1 [Compound 34, 2-[2-(2,3-Dihydro-benzo[1,4]dioxin-6-yl)-2-oxo-ethylsulfanyl]-thiazol-4-one] | >75% | > 75% |  |  |
| active | < 1000 nM |  | COc1cccc(C(=O)CSC#N)c1 [Compound 9] | >75% |  |  |  |
|  | > 10000 nM | 1000 to 10000 nM | Nc1ccccc1NC(=O)c1ccc(CNC(=O)OCc2cccnc2)cc1 [MS-275, reference compound] | >50% |  | >75% |  |
|  | 1000 to 10000 nM | 1000 to 10000 nM | COc1ccc(S(=O)(=O)Nc2cccc(C(=O)CSC3=NCCS3)c2)cc1OC [Compound 30] | >75% | > 75% |  |  |
|  | < 1000 nM | < 1000 nM | CC(/C=C/C(=O)NO)=C\[C@@H](C)C(=O)c1ccc(N(C)C)cc1 [TSA, reference compound] | 100% |  | 100% | 3 to 6 nM |
| active | 1000 to 10000 nM |  | N#CSCC(=O)c1ccccc1 [Compound 1, 1-Phenyl-2-thiocyanato-ethanone] | >75% |  |  |  |
| active | 1000 to 10000 nM |  | COc1ccc(C(=O)CSC#N)cc1 [Compound 10] | >75% |  |  |  |
|  | > 10000 nM | 1000 to 10000 nM | CC(=O)Nc1ccc(C(=O)CSC2=NCCS2)cc1 [Compound 21] | >75% | > 75% |  |  |
|  | < 1000 nM | 1000 to 10000 nM | N#CSCC(=O)c1ccc(Cl)c(Cl)c1 [Compound 3] | >75% | 104% |  |  |
| active | > 10000 nM |  | COc1ccc(C(=O)CSC2=NCCS2)cc1 [Compound 23] | >50% |  |  |  |
|  | 1000 to 10000 nM | 1000 to 10000 nM | O=C(CSC1=NCCS1)c1cccc(NS(=O)(=O)c2ccc(OC(F)(F)F)cc2)c1 [Compound 31] | >75% | > 75% |  |  |
|  | > 10000 nM | 1000 to 10000 nM | O=C(CSC1=NCCS1)c1ccc2c(c1)OCCO2 [Compound 19] | >75% | > 50% |  |  |
|  | 1000 to 10000 nM | 1000 to 10000 nM | CC(=O)Nc1ccc(S(=O)(=O)Nc2ccc(C(=O)CSC3=NCCS3)cc2)cc1 [Compound 29, N-(4-{4-[2(4,5-Dihydro-thiazol-2-ylsulfanyl)-acetyl]-phenylsulfamoyl}-phenyl)-acetamide] | >75% | > 75% |  |  |
